From US5656308A, “Non-reducing oligosaccharide with neotrehalose structure, and its production and uses” (Kabushiki Kaisha Hayashibara Seibutsu Kagaku Kenkyujo, priority 1993, dated 1997)

System: mice
Test: Acute toxicity in mice upon oral administration
Assay type: in vivo
Method: High-purity β-maltosyl α-glucoside, α-maltosyl β-glucoside, β-maltotriosyl α-glucoside, α-maltotriosyl β-glucoside and β-maltosyl α-maltoside prepared by the method in Experiment 2 were tested for acute toxicity in mice upon oral administration.

SMILES	acute toxicity (in words)	death with maximum administrable dose
OC[C@H]1O[C@@H](O[C@H]2O[C@H](CO)[C@@H](O[C@H]3O[C@H](CO)[C@@H](O[C@H]4O[C@H](CO)[C@@H](O)[C@H](O)[C@H]4O)[C@H](O)[C@H]3O)[C@H](O)[C@H]2O)[C@H](O)[C@@H](O)[C@@H]1O [α-maltotriosyl β-glucoside, O-α-D-gluco- pyranosyl-(1→4)-O-α-D-glucopyranosyl-(1→4)-α-D-glucopyranosyl β-D-glucopyranoside]	less toxic	no death was observed
OC[C@H]1O[C@@H](O[C@H]2O[C@H](CO)[C@@H](O[C@H]3O[C@H](CO)[C@@H](O)[C@H](O)[C@H]3O)[C@H](O)[C@H]2O)[C@H](O)[C@@H](O)[C@@H]1O [α-maltosyl β-glucoside, O-α-D-glucopyranosyl-(1→4)-α-D-glucopyranosyl β-D-glucopyranoside]	less toxic	no death was observed
OC[C@H]1O[C@H](O[C@@H]2O[C@H](CO)[C@@H](O[C@H]3O[C@H](CO)[C@@H](O[C@H]4O[C@H](CO)[C@@H](O)[C@H](O)[C@H]4O)[C@H](O)[C@H]3O)[C@H](O)[C@H]2O)[C@H](O)[C@@H](O)[C@@H]1O [β-maltotriosyl α-glucoside, O-α-D-glucopyranosyl-(1→4)-O-α-D-glucopyranosyl-(1→4)-β-D-glucopyranosyl α-D-glucopyranoside]	less toxic	no death was observed
OC[C@H]1O[C@H](O[C@H]2[C@H](O)[C@@H](O)[C@H](O[C@H]3O[C@H](CO)[C@@H](O[C@H]4O[C@H](CO)[C@@H](O)[C@H](O)[C@H]4O)[C@H](O)[C@H]3O)O[C@@H]2CO)[C@H](O)[C@@H](O)[C@@H]1O [β-maltosyl α-maltoside, O-α-D-glucopyranosyl-(1→4)-β-D-glucopyranosyl α-D-maltoside]	less toxic	no death was observed
OC[C@H]1O[C@H](O[C@@H]2O[C@H](CO)[C@@H](O[C@H]3O[C@H](CO)[C@@H](O)[C@H](O)[C@H]3O)[C@H](O)[C@H]2O)[C@H](O)[C@@H](O)[C@@H]1O [β-maltosyl α-glucoside, O-α-D-glucopyranosyl-(1→4)-β-D-glucopyranosyl α-D-glucopyranoside]	less toxic	no death was observed
